Test results: US9388193B2, “Dipicolylamine derivatives and their pharmaceutical uses” (National Health Research Institutes, priority 2014, dated 2016)

Tests used:
Colo205 cells = assay: Cell viability MTS assay, Colo205; format: cell-based; conditions: Homo sapiens, COLO 205, 72 hours incubation
Protocol: (§1) SCM-1, MiaPaca2 and Colo205 cells were grown in RPMI 1640 (Roswell Park Memorial Institute) medium (RPMI; Gibco), supplemented with 10% fetal bovine serum (FBS; Gibco). Detroit551 cells were grown in Dulbecco's modified Eagle's medium (DMEM) supplemented with 10% FBS 50 U/mL of penicillin and streptomycin, and 1% Nonessential amino acids (NEAA; Gibco).
(§2) Zn-DPA conjugates, Zn-DPA-(8), Zn-DPA-(12), Zn-DPA-(25), Zn-DPA-(26), and Zn-DPA-(42) prepared from the corresponding compounds 8, 12, 25, 26, and 42, respectively, were used to inhibit the growth of human cancer cells (SCM-1, Colo205, MiaPaca2) and human embryonic skin fibroblast cells Detroit551 following the procedures described below.
(§3) Cell viability was examined by the MTS assay (Promega, Madison, Wis., USA). More specifically, cells were grown (2500˜3000 cells/well) in a flat bottomed 96-well plate for 24 hours. A medium was added along with a test compound at a pre-determined concentration. The cells were further incubated for 72 hours. At the end of the incubation, the medium was removed and […] with 100 μl of a 3-(4,5-dimethylthiazol-2-yl)-5-(3-carboxymethoxyphenyl)-2-(4-sulfophenyl)-2H-tetrazolium/phenazine methosulfate mixture. The cells were again incubated for 1.5 hours at 37° C. in a humidified incubator with 5% CO2 to allow viable cells to convert the tetrazolium salt into formazan. The conversion was determined by measuring the absorbance at 490 nm using a BioTek PowerWave-X Absorbance Microplate Reader.
(§4) The data obtained were normalized using a vehicle (dimethyl sulfoxide, DMSO)-treated control (100% viability) and a background control (0% viability) to verify growth inhibition. The IC50 value is defined as the concentration of a compound that induces a 50% reduction in cell viability in comparison with a vehicle-treated control. These values were calculated using GraphPad Prism version 4 software (San Diego, Calif., USA).

MiaPaca2 cells = assay: Cell viability MTS assay, MiaPaca2; format: cell-based; conditions: Homo sapiens, MIA PaCa-2, 72 hours incubation
Protocol: as §1, §2, §3, §4

[1] = tested on: human embryonic skin fibroblast Detroit 551; assay: Cell viability MTS assay, Detroit 551; format: cell-based; conditions: 72 hours incubation
Protocol: as §1, §2, §3, §4

SCM-1 cells = assay: Cell viability MTS assay, SCM-1; format: cell-based; conditions: Homo sapiens, 72 hours incubation
Protocol: as §1, §2, §3, §4

[2] = format: in vitro ADME; conditions: mouse, plasma; for Stability (percentage remaining), time = 0: 0 h
Protocol: Plasma Stability of Zn-DPA Conjugates
Zn-DPA conjugates, Zn-DPA-(8), Zn-DPA-(12), Zn-DPA-(25), Zn-DPA-(26), and Zn-DPA-(42) prepared from the corresponding compounds 8, 12, 25, 26, and 42, respectively, were incubated in mouse plasma at 37° C. for up to 24 hours to assess the stability of these conjugates.
A sample was analyzed with a High Performance Liquid Chromatography system to determine the concentration of a test conjugate at one of four time points (i.e., 0, 3 hours, 6 hours, and 24 hours). The percentages of the test conjugate remaining at 3, 6, and 24 hours after incubation in the plasma were determined. A higher percentage indicates greater stability.

Colo205 tumors = assay: In vivo antitumor assay, Colo205 tumor xenograft mouse model; design: species or system nude mice; conditions: compared to SN-38 at 10 mg/kg and CPT-11 at 40 mg/kg
Protocol: (§5) Two Zn-DPA conjugates, Zn-DPA-(26) and Zn-DPA-(42) were subjected to an in vivo antitumor assay against Colo205 or MiaPaca2 tumors growing in nude mice following the procedure described below.
(§6) More specifically, Colo205 or MiaPaca2 cells were cultured and maintained in a flask with a RPMI-1640 medium, which was supplemented with 10% FBS. The cells were harvested and innoculated (1×10^6 cells) subcutaneously into the left flank of a adult male nude mouse. Tumor-bearing mice were grouped at the mean tumor volume of approximately 200 mm^3. Tumor dimensions were measured with a digital caliper, and the tumor volume in mm^3 was calculated by the formula: Volume=(length×width^^2)/2.
(§7) The mice were housed in sterilized cages equipped with an air filter and sterile bedding materials at the Laboratory Animal Center of National Health Research Institutes. All mice were fed with sterilized water and chow at libitum under 12-hour light/12-hour dark cycle throughout the study.
(§8) Several dosages of Zn-DPA-(26) and Zn-DPA-(42), were used in this assay, i.e., 40 mg/kg, 20 mg/kg, and 10 mg/kg, p<0.05 vs. vehicle control by one-way ANOVA analysis and the Newman-Keuls multiple comparison test. […]

MiaPaca2 tumors = assay: In vivo antitumor assay, MiaPaca2 tumor xenograft mouse model; design: species or system nude mice; conditions: i.v., 40, 20 and 10 mg/kg, compared to SN-38 at 10 mg/kg and CPT-11 at 40 mg/kg
Protocol: as §5, §6, §7, §8

Question: Which IC50 (Colo205 cells) does the source give for `CCc1c2c(nc3ccc(OC(=O)N4CCC(N5CCCCC5)CC4)cc13)-c1cc3c(c(=O)n1C2)COC(=O)[C@]3(O)CC` [CPT-11, reference compound] here?
Answer: Its IC50 is greater than 10000 nM.

Question: And the IC50 (MiaPaca2 cells)?
Answer: The IC50 was 3600 nM.

Question: And the IC50 [1]?
Answer: Its IC50 is greater than 10000 nM.

Question: And the IC50 (SCM-1 cells)?
Answer: Its IC50 is greater than 10000 nM.

Question: With `CCc1c2c(nc3ccc(O)cc13)-c1cc3c(c(=O)n1C2)COC(=O)[C@]3(O)CC` [SN-38, reference compound] as the compound, how does the IC50 (Colo205 cells) read?
Answer: The IC50 was 140 nM.

Question: What about the IC50 (MiaPaca2 cells) of the same compound?
Answer: Its IC50 is 20 nM.

Question: And the IC50 [1]?
Answer: The IC50 was 4000 nM.

Question: What about the IC50 (SCM-1 cells) of the same compound?
Answer: Its IC50 is 640 nM.

Question: Which results are given for `CCc1c2c(nc3ccc(OC(=O)c4cccc(NC(=O)NCCCCOc5cc(CN(Cc6ccccn6)Cc6ccccn6)cc(CN(Cc6ccccn6)Cc6ccccn6)c5)c4)cc13)-c1cc3c(c(=O)n1C2)COC(=O)[C@@]3(O)CC` [Zn-DPA-(8)]?
Answer: IC50 (Colo205 cells): 420 nM; IC50 [1]: 9300 nM; IC50 (SCM-1 cells): 640 nM; Stability (percentage remaining), time = 0 [2]: 100%; Stability (percentage remaining), time = 3 hr [2]: 90%; Stability (percentage remaining), time = 6 hr [2]: 82%

Question: With `CCc1c2c(nc3ccc(OC(=O)CCSC4CC(=O)N(Cc5ccc(C(=O)NCCCCOc6cc(CN(Cc7ccccn7)Cc7ccccn7)cc(CN(Cc7ccccn7)Cc7ccccn7)c6)cc5)C4=O)cc13)-c1cc3c(c(=O)n1C2)COC(=O)[C@]3(O)CC` (stereo partly drawn) [Zn-DPA-(12)] as the compound, how does the IC50 (Colo205 cells) read?
Answer: Its IC50 is 120 nM.

Question: And the IC50 [1]?
Answer: Its IC50 is 2900 nM.

Question: What about the IC50 (SCM-1 cells) of the same compound?
Answer: The IC50 was 940 nM.

Question: What about the “Stability (percentage remaining), time = 0” value [2] of the same compound?
Answer: Its value is 100%.

Question: What about the “Stability (percentage remaining), time = 3 hr” value [2] of the same compound?
Answer: The value was 84%.

Question: What about the “Stability (percentage remaining), time = 6 hr” value [2] of the same compound?
Answer: Its value is 76%.

Question: With `CCc1c2c(nc3ccc(OC(=O)c4ccc(CN(CCCCOc5cc(CN(Cc6ccccn6)Cc6ccccn6)cc(CN(Cc6ccccn6)Cc6ccccn6)c5)C(=O)c5c(-c6ccccc6Cl)noc5C)cc4)cc13)-c1cc3c(c(=O)n1C2)COC(=O)[C@]3(O)CC` [Zn-DPA-(25)] as the compound, how does the IC50 (Colo205 cells) read?
Answer: Its IC50 is 580 nM.

Question: And the IC50 [1]?
Answer: Its IC50 is 7200 nM.

Question: What about the IC50 (SCM-1 cells) of the same compound?
Answer: The IC50 was 1000 nM.

Question: What about the “Stability (percentage remaining), time = 0” value [2] of the same compound?
Answer: Its value is 100%.

Question: What about the “Stability (percentage remaining), time = 3 hr” value [2] of the same compound?
Answer: The value was 90%.

Question: What about the “Stability (percentage remaining), time = 6 hr” value [2] of the same compound?
Answer: The value was 85%.

Question: With `CCc1c2c(nc3ccc(OC(=O)c4ccc(CN(CCCCOc5cc(CN(Cc6ccccn6)Cc6ccccn6)cc(CN(Cc6ccccn6)Cc6ccccn6)c5)C(=O)C5(c6ccc(Cl)cc6)CCCCC5)cc4)cc13)-c1cc3c(c(=O)n1C2)COC(=O)[C@]3(O)CC` [Zn-DPA-(26)] as the compound, how does the IC50 (Colo205 cells) read?
Answer: Its IC50 is 1100 nM.

Question: What about the antitumor activity (Colo205 tumors; i.v., dosages of 10 mg/kg and 40 mg/kg) of the same compound?
Answer: Its antitumor activity is “much higher antitumor activities”.

Question: And the IC50 (MiaPaca2 cells)?
Answer: Its IC50 is 120 nM.

Question: What about the IC50 [1] of the same compound?
Answer: Its IC50 is greater than 10000 nM.

Question: What about the IC50 (SCM-1 cells) of the same compound?
Answer: Its IC50 is 2600 nM.

Question: What about the “Stability (percentage remaining), time = 0” value [2] of the same compound?
Answer: The value was 100%.

Question: And the “Stability (percentage remaining), time = 3 hr” value [2]?
Answer: The value was 99%.

Question: What about the “Stability (percentage remaining), time = 6 hr” value [2] of the same compound?
Answer: The value was 97%.

Question: Which antitumor activity (MiaPaca2 tumors) does the source give for `CCc1c2c(nc3ccc(OC(=O)c4ccc(CN(CCOCCOCCNC(=O)c5ccc(CN(CCCCOc6cc(CN(Cc7ccccn7)Cc7ccccn7)cc(CN(Cc7ccccn7)Cc7ccccn7)c6)C(=O)C6(c7ccc(Cl)cc7)CCCCC6)cc5)C(=O)C5(c6ccc(Cl)cc6)CCCCC5)cc4)cc13)-c1cc3c(c(=O)n1C2)COC(=O)[C@]3(O)CC` [Zn-DPA-(42)] here?
Answer: Its antitumor activity is “antitumor activities in a dose-dependent manner and much higher antitumor activities”.

Question: And the IC50 (Colo205 cells)?
Answer: Its IC50 is 3700 nM.

Question: What about the antitumor activity (Colo205 tumors; i.v., 40, 20 and 10 mg/kg) of the same compound?
Answer: The antitumor activity was “antitumor activities in a dose-dependent manner and much higher antitumor activities”.

Question: And the IC50 (MiaPaca2 cells)?
Answer: Its IC50 is 550 nM.

Question: And the IC50 [1]?
Answer: Its IC50 is greater than 10000 nM.

Question: What about the “Stability (percentage remaining), time = 0” value [2] of the same compound?
Answer: Its value is 100%.

Question: And the “Stability (percentage remaining), time = 3 hr” value [2]?
Answer: Its value is 99%.

Question: What about the “Stability (percentage remaining), time = 6 hr” value [2] of the same compound?
Answer: Its value is 98%.
